System: 885512-296-R-J2-PDC complex spheroid growth, % test/control
Assay: Anticancer human tumor 885512-296-R-J2-PDC patient-derived breast carcinoma cell line growth inhibition [Asc]
Conditions: for IC50: curve of first compound; for viability, T/C: stronger effect = lower value; active means viability on the fitted dose curve at most 10% of control; inactive means the rest
Procedure, shortened: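 Stromal components (HUVEC and hMSC) are co-assembled with the cancer cells into multicellular spheroids. Drugs are then added singly or paired, at concentrations falling by half-log increments from a clinically achievable maximum, capped at 10 microM without known Cmax.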
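Further: spheroids exposed to compounds for seven days.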
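Wherever viability, T/C is given: 100% = DMSO vehicle control wells.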

NC1CCC(NC2CC2c2ccccc2)CC1 (stereo not given) + Cc1c(S(C)(=O)=O)c(-c2cc(F)cc(N3CCN(c4ccc(NS(=O)(=O)c5ccc(NC(CCN6CCC(C(=O)OCCCP(=O)(O)O)CC6)CSc6ccccc6)c(S(=O)(=O)C(F)(F)F)c5)cc4)CC3)c2)c(-c2ccc(Cl)cc2)n1C(C)C
> 100 nM: IC50 (second compound 0.1 µM) | IC50 (second compound 0.316 µM) | IC50 (second compound 1 µM) | IC50 (second compound 3.16 µM) | IC50 (second compound 10 µM)
inactive: viability, T/C (second compound 0.1 µM, first compound 0.000316 µM) 124% | viability, T/C (second compound 0.1 µM, first compound 0.001 µM) 127% | viability, T/C (second compound 0.1 µM, first compound 0.00316 µM) 122% | viability, T/C (second compound 0.1 µM, first compound 0.01 µM) 123% | viability, T/C (second compound 0.1 µM, first compound 0.0316 µM) 123% | viability, T/C (second compound 0.1 µM, first compound 0.1 µM) 113% | viability, T/C (second compound 0.316 µM, first compound 0.000316 µM) 121% | viability, T/C (second compound 0.316 µM, first compound 0.001 µM) 126% | viability, T/C (second compound 0.316 µM, first compound 0.00316 µM) 118% | viability, T/C (second compound 0.316 µM, first compound 0.01 µM) 108% | viability, T/C (second compound 0.316 µM, first compound 0.0316 µM) 127% | viability, T/C (second compound 0.316 µM, first compound 0.1 µM) 122% | viability, T/C (second compound 1 µM, first compound 0.000316 µM) 109% | viability, T/C (second compound 1 µM, first compound 0.001 µM) 115% | viability, T/C (second compound 1 µM, first compound 0.00316 µM) 122% | viability, T/C (second compound 1 µM, first compound 0.01 µM) 116% | viability, T/C (second compound 1 µM, first compound 0.0316 µM) 123% | viability, T/C (second compound 1 µM, first compound 0.1 µM) 121% | viability, T/C (second compound 3.16 µM, first compound 0.000316 µM) 112% | viability, T/C (second compound 3.16 µM, first compound 0.001 µM) 116% | viability, T/C (second compound 3.16 µM, first compound 0.00316 µM) 116% | viability, T/C (second compound 3.16 µM, first compound 0.01 µM) 111% | viability, T/C (second compound 3.16 µM, first compound 0.0316 µM) 113% | viability, T/C (second compound 3.16 µM, first compound 0.1 µM) 120% | viability, T/C (second compound 10 µM, first compound 0.000316 µM) 122% | viability, T/C (second compound 10 µM, first compound 0.001 µM) 104% | viability, T/C (second compound 10 µM, first compound 0.00316 µM) 99.5% | viability, T/C (second compound 10 µM, first compound 0.01 µM) 121% | viability, T/C (second compound 10 µM, first compound 0.0316 µM) 111% | viability, T/C (second compound 10 µM, first compound 0.1 µM) 118%

Reference: PubChem BioAssay AID1963447 (Molecular Pharmacology Branch, DTP, NCI, 2024)
